The text below walks through data of US7186743B2, “Substituted pyrazolyl compounds for the treatment of inflammation” (Pharmacia Corporation, priority 2001, dated 2007).

Structures can show the parent of a compound that is named as a salt.

The first assay concerns the target T1, IKK2 (Homo sapiens, UniProt O14920).
T1 construct: made in house; host or cells: insect cells (baculovirus, pFastBac; SF9)
T1 sequence (O14920 1-756): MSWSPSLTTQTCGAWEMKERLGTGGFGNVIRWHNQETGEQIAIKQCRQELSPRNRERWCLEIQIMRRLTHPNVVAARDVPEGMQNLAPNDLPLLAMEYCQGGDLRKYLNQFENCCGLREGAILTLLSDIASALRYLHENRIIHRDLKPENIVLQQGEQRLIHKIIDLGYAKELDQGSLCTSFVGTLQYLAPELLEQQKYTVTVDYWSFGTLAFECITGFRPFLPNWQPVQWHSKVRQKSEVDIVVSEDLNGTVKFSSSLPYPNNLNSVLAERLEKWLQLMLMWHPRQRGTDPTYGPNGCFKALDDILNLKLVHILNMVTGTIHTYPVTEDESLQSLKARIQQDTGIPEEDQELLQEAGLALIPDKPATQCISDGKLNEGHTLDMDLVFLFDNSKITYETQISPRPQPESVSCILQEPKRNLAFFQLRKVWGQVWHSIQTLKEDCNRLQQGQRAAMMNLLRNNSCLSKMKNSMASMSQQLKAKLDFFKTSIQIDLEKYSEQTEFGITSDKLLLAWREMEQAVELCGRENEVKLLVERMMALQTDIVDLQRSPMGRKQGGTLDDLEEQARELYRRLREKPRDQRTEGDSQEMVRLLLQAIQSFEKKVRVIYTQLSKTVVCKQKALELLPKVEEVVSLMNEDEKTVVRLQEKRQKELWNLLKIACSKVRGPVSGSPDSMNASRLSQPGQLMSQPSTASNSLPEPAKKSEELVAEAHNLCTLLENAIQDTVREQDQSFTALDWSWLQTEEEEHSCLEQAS
Kind of assay: IKKβ Resin Enzyme Assay (IKK2 resin). Format: biochemical. As to conditions: Table 3; read-out: IKK Resin IC50. An excerpt: cDNAs of human IKK1 and IKK2 were amplified by reverse transcriptase-polymerase chain reaction from human placental RNA (Clonetech). hIKK1 was subcloned into pFastBac HTa (Life Technologies) and expressed as N-terminal His6-tagged fusion protein. The hIKK2 cDNA was amplified using a reverse oligonucleotide primer which incorporated the peptide sequence for a FLAG-epitope tag at the C-terminus of the IKK2 coding region ([…]). The hIKK2:FLAG cDNA was subcloned into the baculovirus vector pFastBac. The rhIKK2 ([…]) mutant was constructed in the same vector used for wild type rhIKK2 using a QuikChange™ mutagenesis kit (Stratagene). Viral stocks of each construct were used to infect insect cells grown in 40 L suspension culture. […] Cell lysates were stored at −80° C. until purification of the recombinant proteins was undertaken as described below.
A 10-liter culture of baculovirus-expressing IKK2 tagged with FLAG peptide was centrifuged and the cell pellet (MOI=0.1 and I=72 hrs) was re-suspended in buffer A. These cells were microfluidized, and centrifuged at 100,000×g for 45 min. Supernatant was passed over a G-25 column equilibrated with Buffer A. Protein peak was collected and incubated with anti-FLAG affinity resin on a rotator overnight in buffer B. The resin was washed in batch with 10–15 bed volumes of buffer C. Washed resin was poured into a column and rhIKK2 homodimer was eluted using 5 bed volumes of buffer B containing FLAG peptide. 5 mM DTT, 0.1% NP-40 and BSA (concentrated to 0.1% in final amount) was added to the eluted enzyme before concentrating in using an Amicon membrane with a molecular weight cut-off of 30 kDa. Enzyme was aliquoted and stored at −80° C.
IKKβ kinase activity was measured using a biotinylated IκBα peptide ([…]32-Gly-Leu-Asp-Ser36-Met-Lys-Asp-Glu-Glu) (American Peptide Co.). […] ATP (Amersham) (about 1×10^5 cpm), 1 μM ATP (Sigma), 1 mM DTT (Sigma), 2 mM MgCl2 (Sigma), 2 mM MnCl2 (Sigma), 10 mM NaF (Sigma), 25 mM Hepes (Sigma) buffer, pH 7.6 and 20 μl enzyme solution and 10 ul inhibitor in a final volume of 50 μl. After incubation at 25° C. for 30 min, 150 μl resin (Dowex anion-exchange resin AG1X8 200–400 mesh) in 900 mM formate, pH 3.0 was added to each well to stop the reaction. Resin was allowed to settle for one hour and 50 ul of supernatant was removed to a Micolite-2 flat bottom plate (Dynex). 150 μl of scintillation fluid (Microscint 40) (Packard) was added to each well. Incorporation of [γ-^33P] ATP was measured using a Top-Count NXT (Packard).
As for `COc1cc(C(=O)Nc2ccc3c(c2)-c2c(c(C(N)=O)nn2-c2ccc(S(C)(=O)=O)cc2)CC3)c([N+](=O)[O-])cc1OC` [Example 150, 8-[(4,5-dimethoxy-2-nitrobenzoyl)amino]-1-[4-(methylsulfonyl)phenyl]-4,5-dihydro-1H-benzo[g]indazole-3-carboxamide], the IC50 (usually the point on the concentration scale where inhibition reaches its midpoint) is no more than 1 µM.

`CS(=O)(=O)c1ccc(-n2nc(C(N)=O)c3c2-c2cc(NC(=O)c4cc(F)ccc4[N+](=O)[O-])ccc2CC3)cc1` [Example 151, 8-[(5-fluoro-2-nitrobenzoyl)amino]-1-[4-(methylsulfonyl)phenyl]-4,5-dihydro-1H-benzo[g]indazole-3-carboxamide]: the IC50 was no more than 1 µM.

Consider `CS(=O)(=O)c1ccc(-n2nc(C(N)=O)c3c2-c2cc(NC(=O)c4ccc(C(F)(F)F)cc4[N+](=O)[O-])ccc2CC3)cc1` [Example 152, 1-[4-(methylsulfonyl)phenyl]-8-{[2-nitro-4-(trifluoromethyl)benzoyl]amino}-4,5-dihydro-1H-benzo[g]indazole-3-carboxamide], for which the IC50 is no more than 1 µM.

With `Cc1ccc([N+](=O)[O-])c(C(=O)Nc2ccc3c(c2)-c2c(c(C(N)=O)nn2-c2ccc(S(C)(=O)=O)cc2)CC3)c1` [Example 153], the IC50 was no more than 1 µM.

Turning to `CS(=O)(=O)c1ccc(-n2nc(C(N)=O)c3c2-c2cc(NC(=O)c4ccc([N+](=O)[O-])cc4[N+](=O)[O-])ccc2CC3)cc1` [Example 155, 8-[(2,4-dinitrobenzoyl)animo]-1-[4-(methylsulfonyl)phenyl]-4,5-dihydro-1H-benzo[g]indazole-3-carboxamide], the IC50 was no more than 1 µM.

Turning to `COc1cccc(CC(=O)Nc2ccc3c(c2)-c2c(c(C(N)=O)nn2-c2ccc(S(C)(=O)=O)cc2)CC3)c1` [Example 157, 8-{[(3-methoxyphenyl)acetyl]amino}-1-[4-(methylsulfonyl)phenyl]-4,5-dihydro-1H-benzo[g]indazole-3-carboxamide], the IC50 is no more than 1 µM.

Staying with this assay, now noted: Table 4; read-out: IKK2 Resin IC50.
On to `CS(=O)(=O)c1ccc(C(=O)Nc2ccc3c(c2)-c2c(c(C(N)=O)nn2-c2ccc4c(c2)OCO4)CC3)c(Cl)c1` [Example 163, 1-(1,3-benzodioxol-5-yl)-8-{[2-chloro-4-(methylsulfonyl)benzoyl]amino}-4,5-dihydro-1H-benzo[g]indazole-3-carboxamide], for which the IC50 was no more than 1 µM.

For `NC(=O)c1nn(-c2ccc3c(c2)OCO3)c2c1CCc1ccc(NC(=O)c3ccc(F)cc3Cl)cc1-2` [Example 164, 1-(1,3-benzodioxol-5-yl)-8-[(2-chloro-4-fluorobenzoyl)amino]-4,5-dihydro-1H-benzo[g]indazole-3-carboxamide], the IC50 is no more than 1 µM.

Turning to `NC(=O)c1nn(-c2ccc3c(c2)OCO3)c2c1CCc1ccc(NC(=O)c3ccccc3Cl)cc1-2` [Example 165, 1-(1,3-benzodioxol-5-yl)-8-[(2-chlorobenzoyl)amino]-4,5-dihydro-1H-benzo[g]indazole-3-carboxamide], the IC50 is no more than 1 µM.

On to `NC(=O)c1nn(-c2ccc3c(c2)OCO3)c2c1CCc1ccc(NC(=O)c3cc(F)c(F)cc3Cl)cc1-2` [Example 166, 1-(1,3-benzodioxol-5-yl)-8-[(2-chloro-4,5-difluorobenzoyl)amino]-4,5-dihydro-1H-benzo[g]indazole-3-carboxamide], for which the IC50 was no more than 1 µM.

Turning to `Cc1ccc(C(=O)Nc2ccc3c(c2)-c2c(c(C(N)=O)nn2-c2ccc4c(c2)OCO4)CC3)c(Cl)n1` [Example 167, 1-(1,3-benzodioxol-5-yl)-8-{[(2-chloro-6-methylpyridin-3-yl)carbonyl]amino}-4,5-dihydro-1H-benzo[g]indazole-3-carboxamide], the IC50 was no more than 1 µM.

For `NC(=O)c1nn(-c2ccc3c(c2)OCO3)c2c1CCc1ccc(NC(=O)c3cc4c(cc3Cl)OCO4)cc1-2` [Example 168, 1-(1,3-benzodioxol-5-yl)-8-{[(6-chloro-1,3-benzodioxol-5-yl)carbonyl]amino}-4,5-dihydro-1H-benzo[g]indazole-3-carboxamide], the IC50 is no more than 1 µM.

Turning to `NC(=O)c1nn(-c2ccc3c(c2)OCO3)c2c1CCc1ccc(NC(=O)c3c(N)cccc3Cl)cc1-2` [Example 169, 8-[(2-amino-6-chlorobenzoyl)amino]-1-(1,3-benzodioxol-5-yl)-4,5-dihydro-1H-benzo[g]indazole-3-carboxamide], the 50% inhibitory concentration (IC50) was no more than 1 µM.

As to `NC(=O)c1nn(-c2ccc3c(c2)OCO3)c2c1CCc1ccc(NC(=O)c3ccncc3Cl)cc1-2` [Example 170, 1-(1,3-benzodioxol-5-yl)-8-[(3-chloroisonicotinoyl)amino]-4,5-dihydro-1H-benzo[g]indazole-3-carboxamide], the IC50 was no more than 1 µM.

For `NC(=O)c1nn(-c2ccc3c(c2)OCO3)c2c1CCc1ccc(NC(=O)c3cccc(N)c3Cl)cc1-2` [Example 171, 8-[(3-amino-2-chlorobenzoyl)amino]-1-(1,3-benzodioxol-5-yl)-4,5-dihydro-1H-benzo[g]indazole-3-carboxamidehydrochloride], the 50% inhibitory concentration (IC50) was no more than 1 µM.

For `NC(=O)c1nn(-c2ccc3c(c2)OCO3)c2c1CCc1ccc(NC(=O)c3cc(N)ccc3Cl)cc1-2` [Example 172, 8-[(5-amino-2-chlorobenzoyl)amino]-1-(1,3-benzodioxol-5-yl)-4,5-dihydro-1H-benzo[g]indazole-3-carboxamide], the IC50 was no more than 1 µM.

Take `NC(=O)c1nn(-c2ccc3c(c2)OCO3)c2c1CCc1ccc(NC(=O)c3cc([N+](=O)[O-])ccc3Cl)cc1-2` [Example 173, 1-(1,3-benzodioxol-5-yl)-8-[(2-chloro-5-nitrobenzoyl)amino]-4,5-dihydro-1H-benzo[g]indazole-3-carboxamide]: the IC50 is no more than 1 µM.

Take `COc1cc(Cl)c(C(=O)Nc2ccc3c(c2)-c2c(c(C(N)=O)nn2-c2ccc4c(c2)OCO4)CC3)cc1OC` [Example 174, 1-(1,3-benzodioxol-5-yl)-8-[(2-chloro-4,5-dimethoxybenzoyl)amino]-4,5-dihydro-1H-benzo[g]indazole-3-carboxamide]: the IC50 is no more than 1 µM.

With `COc1ccc(C(=O)Nc2ccc3c(c2)-c2c(c(C(N)=O)nn2-c2ccc4c(c2)OCO4)CC3)c(Cl)c1OC` [Example 175, 1-(1,3-benzodioxol-5-yl)-8-[(2-chloro-3,4-dimethoxybenzoyl)amino]-4,5-dihydro-1H-benzo[g]indazole-3-carboxamide], the IC50 is no more than 1 µM.

On to `NC(=O)c1nn(-c2ccc3c(c2)OCO3)c2c1CCc1ccc(NC(=O)c3ccccc3Br)cc1-2` [Example 177, 1-(1,3-benzodioxol-5-yl)-8-[(2-bromobenzoyl)amino]-4,5-dihydro-1H-benzo[g]indazole-3-carboxamide], for which the IC50 is no more than 1 µM.

Turning to `COc1ccc(Cl)c(C(=O)Nc2ccc3c(c2)-c2c(c(C(N)=O)nn2-c2ccc4c(c2)OCO4)CC3)c1` [Example 178, 1-(1,3-benzodioxol-5-yl)-8-[(2-chloro-5-methoxybenzoyl)amino]-4,5-dihydro-1H-benzo[g]indazole-3-carboxamide], the IC50 was no more than 1 µM.

`NC(=O)c1nn(-c2ccc3c(c2)OCO3)c2c1CCc1ccc(NC(=O)c3ccc(N)cc3Cl)cc1-2` [Example 180, 8-[(4-amino-2-chlorobenzoyl)amino]-1-(1,3-benzodioxol-5-yl)-4,5-dihydro-1H-benzo[g]indazole-3-carboxamide]: the IC50 was no more than 1 µM.
